Assay results: US7700122B1, “Topical compositions comprising an opioid analgesic and an NMDA antagonist” (Memorial Sloan-Kettering Cancer Center, priority 1998, dated 2010)
Entries after “also recorded” stand apart in the source; their conditions may differ. Structures can show the parent of a compound that is named as a salt.

Columns and labels:
CD-1 mice [1] = experiment: Effect of NMDA antagonists (MK801, ketamine) on topical morphine tolerance (tailflick); format: in vivo
Procedure: (§1) Systemic drugs were given subcutaneously (s.c.) in the midscapular region of the back. Intracerebroventricularly (i.c.v.) and intrathecal injections were performed under light halothane anesthesia 30 and 15 min before testing, respectively, as previously reported (Kolesnikov et al, 1996). The i.c.v. injections were administered-2 mm caudal and 2 mm lateral to the bregma at a depth of 3 mm, whereas intrathecal injections were made by lumbar puncture. Drugs were given topically on the tail by immersion of the tail in dimethylsulfoxide (DMSO) solutions containing the indicated drugs. The distal portion of the tail (3 cm) was immersed in DMSO solution for 1 min. Tailflick latencies then were determined on the region of the tail immersed in the drug, unless otherwise stated. To ensure a local effect, testing was also done with a more proximal segment of tail not exposed to the drug solution.
(§2) Analgesia was assessed with the tail-flick assay, as previously reported (Kolesnikov et al., 1996). The tail was exposed to a focused beam of light and the latency of exposure determined. […] A maximum cutoff latency of 10 sec was used to minimize tissue damage in analgesic animals. Testing was performed 30 min after systemic administration, 15 min after either i.c.v or i.t. injections or immediately after termination of topical administration into the tail. Antinociception, or analgesia, was defined quantally as a tailflick latency for an individual mouse which was at least twice its baseline latency. Group comparisons were performed using the Fisher exact test. ED50 values were determined using the Bliss program, as previously reported (Pick et al., 1993). To ensure a local action, in all studies we examined a region of the tail which was immersed in DMSO as well as a more proximal segment which was not exposed.

CD-1 mice [2] = experiment: Tailflick assay, topical opioid analgesia (tail immersion in DMSO solution); format: in vivo; settings: for analgesic response: morphine solution 7.5 mM; for analgesic response in proximal tail not exposed to the opioid solution: mouse, in vivo; for Relative potency: ratio of topical ED50 against morphine; for ED50 (95% CL): topical for 1 min, tailflick assay, CD-1 mice
CD-1 mice [3] = experiment: Interactions between topical and systemic or spinal morphine (tailflick); format: in vivo; settings: for ED50: Mus musculus, topical, 0.5 h
Procedure: Testing was performed 10 min following drug administration. […] Testing was performed 30 min following drug administration.
as §1, §2

CD-1 mice [4] = experiment: Tolerance to systemic and topical morphine and cross tolerance (tailflick); format: in vivo; settings: for response to topical opioid after chronic systemic morphine (cross tolerance): morphine 5 mg/kg s.c. daily five days, tested day six, 1 min local exposure (morphine 15 mM, M6G 20 mM, DAMGO 2 mM)
Procedure: as §1, §2

[5] = for Radioactivity, Tail Unexposed: unexposed tail less than 1 cm from exposed region
CD-1 mice [6] = experiment: Effects of opioid antagonists on topical mu analgesia (tailflick); format: in vivo; settings: for effect of naloxone on topical opioid analgesic responses: naloxone 1 mg/kg s.c. 20 min prior, M6G 20 mM topical 1 min; for effect of 3-methoxynaltrexone on topical M6G response: 0.25 mg/kg s.c. 20 min prior, M6G 20 mM
Procedure: as §1, §2

CD-1 mice [7] = settings: subcutaneous injection in the tail, doses of 10 or 30 μg
[8] = central actions; cited from earlier work
[9] = tail immersed 3 min in 100 μCi/ml in DMSO, sampled within 5 min
[10] = morphine 15 mM daily, after three days

For `CNC1(c2ccccc2Cl)CCCCC1=O` (stereo not shown) [ketamine, 2-(2-chlorophenyl)-2-(methylamino) cyclohexanone], the “topical morphine tolerance with intrathecal ketamine” value (CD-1 mice [1]; data not shown) was “ineffective”, the “topical morphine tolerance with systemic ketamine” value (CD-1 mice [1]; data not shown) was “prevented the development of tolerance to topical morphine” and the “reversal of established topical morphine tolerance by topical ketamine 36 mM” value (CD-1 mice [1]; ketamine from day 3 through day 6) was “completely restored morphine analgesia”. The “topical morphine tolerance with topical ketamine 3.6 mM” value (CD-1 mice [1]; morphine 15 mM once daily) was “significantly lessened the loss of morphine analgesic response after three days; also recorded: delayed the appearance of tolerance”, the “topical morphine tolerance with topical ketamine 36 mM” value (CD-1 mice [1]; morphine 15 mM once daily) was “prevented tolerance up to six days; also recorded: effectively blocked tolerance” and the “analgesia of ketamine alone” value (CD-1 mice [1]; topical 36 mM) was “did not produce significant analgesia; also recorded: no appreciable effect”.

In the case of `CN1CC[C@]23c4c5ccc(O)c4O[C@H]2[C@@H](O)C=C[C@H]3[C@H]1C5` [Morphine], the analgesic response (CD-1 mice [2]; exposure 30 seconds) is reported as 25%, the analgesic response (CD-1 mice [2]; exposure 2 min) is reported as 80% and the analgesic response (CD-1 mice [2]; exposure one minute) is reported as 50%. For the same compound, the “analgesic response in proximal tail not exposed to the opioid solution” value (CD-1 mice [2]) was “no analgesic response”, the “duration of the response” value (CD-1 mice [2]; topical, FIG. 1a) was “less than 30 min” and the “onset of analgesia after removal of the tail from the opioid solution” value (CD-1 mice [2]; topical, shortest time tested) was “detectable within one minute”. The “response to spinal morphine alone” value (CD-1 mice [3]; 100 ng, i.t.) was “no observable action”, the “response to systemic morphine alone” value (CD-1 mice [3]; 1 mg/kg, s.c.) was 10% and the “potentiation of analgesic potency of systemic morphine by topical morphine” value (CD-1 mice [3]; 30 min) was ~7 fold. For the same compound, the ED50 (CD-1 mice [3]; read-out: ED50 value, Systemic + topical) was 0.66 mg/kg, the ED50 (CD-1 mice [3]; read-out: ED50 value, Systemic alone) was 4.3 mg/kg and the “ED50 value, Spinal alone” value (CD-1 mice [3]; intrathecal morphine alone, tested 15 min) was 550 ng (386-822). For the same compound, the “ED50 value, Spinal + topical” value (CD-1 mice [3]; intrathecal morphine with fixed topical morphine 15 mM, tested 15 min) was 46 ng (21-84), the “enhancement of potency of intrathecal morphine by topical morphine” value (CD-1 mice [3]; mouse, in vivo) was ~12 fold and the “response of topical plus spinal morphine versus sum of routes” value (CD-1 mice [3]; topical 15 mM 2 min + 100 ng i.t., 10 min) was “significantly more active than the sum of the two individual routes alone”. For the same compound, the “response of topical plus systemic morphine versus sum of routes” value (CD-1 mice [3]; topical 15 mM + 1 mg/kg s.c., 30 min) was “significantly greater than the sum of the two ones alone”, the “response to topical morphine alone at 1 min” value (CD-1 mice [3]; topical morphine 15 mM, 2 min exposure, 1 min after) was 80% and the “response to topical morphine alone at 10 min” value (CD-1 mice [3]; topical morphine 15 mM, 10 min after) was 30%. For the same compound, the “response to topical morphine alone at 30 min” value (CD-1 mice [3]; topical morphine 15 mM, 30 min after) was “no observable response; also recorded: No analgesia”, the “day 3 response, systemic versus topical group” value (CD-1 mice [4]; 5 mg/kg s.c. or topical 15 mM 1 min daily) was “significantly greater than the topical group” and the ED50 (CD-1 mice [4]; Mus musculus, topical, read-out: ED50 (95% confidence limits), Systemic, Naive) was 4.3 mg/kg. The “ED50 (95% confidence limits), Topical, Tolerant” value (CD-1 mice [4]; after topical morphine 15 mM daily for two days) was 78 mM (49, 123), the “response to topical opioid after chronic systemic morphine (cross tolerance)” value (from here on “response to topical opioid”) (CD-1 mice [4]) was “significantly decreased” and the “ED50 (95% confidence limits), Topical, Naive” value (CD-1 mice [4]; naive mice, topical morphine) was 8.3 mM (4.1-10.2). The “response to daily topical morphine alone after three days” value (CD-1 mice [4]; topical 15 mM, 1 min, daily) was “lost and profound tolerance by the third day and complete loss analgesia by the third day”.

For [^125I]Morphine [^125I-Morphine], the “Radioactivity, Blood” value [5, 9] was 69 ± 18 cpm/g, the “Radioactivity, Spinal cord” value [5, 9] was 71 ± 12 cpm/g and the “Radioactivity, Tail Exposed” value [5, 9] was 38,460 ± 3,455 cpm/g. For the same compound, the “Radioactivity, Tail Unexposed” value [5] was 234 ± 51 cpm/g.

In the case of `C[C@]12N[C@H](Cc3ccccc31)c1ccccc12` [MK801, (5R,10S)— (+)-5-methyl-10,11-dihydro-5H-dibenzo[a,d]cyclohapten-5,10-immine hydrogen maleate], the “topical morphine response with intrathecal MK801” value (CD-1 mice [1]; MK801 1 μg i.t., morphine 15 mM daily) is reported as “lost and ineffective”, the “topical morphine response with systemic MK801 (tolerance prevention)” value (CD-1 mice [1]; MK801 0.1 mg/kg s.c., morphine 15 mM daily) is reported as “remained essentially unchanged for five days” and the “reversal of established topical morphine tolerance by topical MK801” value (CD-1 mice [1]; MK801 0.3 or 3 mM from fourth day) is reported as “reversed the previously established tolerance”. The “topical morphine response with topical MK801 3 mM (tolerance prevention)” value (CD-1 mice [1]; morphine 15 mM 1 min daily) was “remained essentially unchanged for five days; also recorded: prevented the loss of responsiveness”, the “topical morphine response with topical MK801 0.15 mM” value (CD-1 mice [1]; [10]) was “intermediate response” and the “topical morphine response with topical MK801 0.3 mM” value (CD-1 mice [1]; [10]) was “prevented the loss of responsiveness; also recorded: effectively blocking tolerance”.

With `C[C@@H](NC(=O)[C@@H](N)Cc1ccc(O)cc1)C(=O)NCC(=O)N(C)[C@@H](Cc1ccccc1)C(=O)NCCO` [DAMGO, [D-Ala^2,MePhe^4,Gly(ol)^5]enkephalin] the “analgesic response in proximal tail not exposed to the opioid solution” value (CD-1 mice [2]) was “no analgesic response”, the Relative potency (CD-1 mice [2]) was 5 and the “ED50 (95% CL)” value (CD-1 mice [2]) was 1.6 mM (1-2.5). The “duration of action” value (CD-1 mice [2]; topical, FIG. 1a) was “lasting almost an hour”, the “potency relative to morphine” value (CD-1 mice [2]; topical, fixed exposure time) was “over 5 fold” and the “response to topical opioid” value (CD-1 mice [4]) was “significantly decreased”.

For [^125I]DAMGO [^125I-DAMGO], the “Radioactivity, Blood” value [5, 9] was <50 cpm/g, the “Radioactivity, Brain” value [5, 9] was <50 cpm/g and the “Radioactivity, Spinal cord” value [5, 9] was <50 cpm/g. For the same compound, the “Radioactivity, Tail Exposed” value [5, 9] was 45,280 ± 2,637 cpm/g and the “Radioactivity, Tail Unexposed” value [5] was 157 ± 51 cpm/g.

With `C=CCN1CC[C@]23c4c5ccc(O)c4O[C@H]2C(=O)CC[C@@]3(O)[C@H]1C5` [naloxone] the “effect of naloxone on topical opioid analgesic responses” value (CD-1 mice [6]; morphine 15 mM, DAMGO 2 mM) was “easily reversed; also recorded: readily reversed” and the “effect of naloxone on topical opioid analgesic responses” value (CD-1 mice [6]; morphine 15 mM, DAMGO 2 mM, listed as Naloxone) was “significantly reduced the responses for all agonists”.

For `COc1ccc2c3c1O[C@H]1C(=O)CC[C@@]4(O)[C@@H](C2)N(CC2CC2)CC[C@]314` [3-MeONtx, 3-methoxynaltrexone], the “effect of 3-methoxynaltrexone on topical M6G response” value (CD-1 mice [6]) was “significantly lowered the response only for M6G”, the “effect of 3-methoxynaltrexone on topical M6G response” value (CD-1 mice [6]; listed as 3MeONtx) was “significantly lowered the M6G response” and the “effect of 3-methoxynaltrexone on topical morphine or DAMGO analgesia” value (CD-1 mice [6]; 0.25 mg/kg s.c., morphine 15 mM, DAMGO 2 mM) was “inactive”.

In the case of `CN1CC[C@]23c4c5ccc(O)c4O[C@H]2[C@@H](O[C@@H]2O[C@H](C(=O)O)[C@@H](O)[C@H](O)[C@H]2O)C=C[C@H]3[C@H]1C5` [M6G, morphine-6β-glucuronide], the “analgesic response in proximal tail not exposed to the opioid solution” value (CD-1 mice [2]) is reported as “did not display analgesia”, the Relative potency (CD-1 mice [2]) is reported as 0.9 and the “ED50 (95% CL)” value (CD-1 mice [2]) is reported as 9.3 mM (7-14). For the same compound, the “topical analgesic response” value (CD-1 mice [2]; topical paradigm, tailflick) was “full analgesic response”, the “ceiling effect of analgesia” value (CD-1 mice [7]) was 30% and the “response to topical opioid” value (CD-1 mice [4]) was “no change”. The “central activity relative to morphine” value [8] was “approximately 100 fold”.
